The values that follow come from patent US9242933B2 (AbbVie Deutschland GmbH & Co. KG, priority 2007, dated 2016).

Chain of mGlu3 (Q14832 23-879): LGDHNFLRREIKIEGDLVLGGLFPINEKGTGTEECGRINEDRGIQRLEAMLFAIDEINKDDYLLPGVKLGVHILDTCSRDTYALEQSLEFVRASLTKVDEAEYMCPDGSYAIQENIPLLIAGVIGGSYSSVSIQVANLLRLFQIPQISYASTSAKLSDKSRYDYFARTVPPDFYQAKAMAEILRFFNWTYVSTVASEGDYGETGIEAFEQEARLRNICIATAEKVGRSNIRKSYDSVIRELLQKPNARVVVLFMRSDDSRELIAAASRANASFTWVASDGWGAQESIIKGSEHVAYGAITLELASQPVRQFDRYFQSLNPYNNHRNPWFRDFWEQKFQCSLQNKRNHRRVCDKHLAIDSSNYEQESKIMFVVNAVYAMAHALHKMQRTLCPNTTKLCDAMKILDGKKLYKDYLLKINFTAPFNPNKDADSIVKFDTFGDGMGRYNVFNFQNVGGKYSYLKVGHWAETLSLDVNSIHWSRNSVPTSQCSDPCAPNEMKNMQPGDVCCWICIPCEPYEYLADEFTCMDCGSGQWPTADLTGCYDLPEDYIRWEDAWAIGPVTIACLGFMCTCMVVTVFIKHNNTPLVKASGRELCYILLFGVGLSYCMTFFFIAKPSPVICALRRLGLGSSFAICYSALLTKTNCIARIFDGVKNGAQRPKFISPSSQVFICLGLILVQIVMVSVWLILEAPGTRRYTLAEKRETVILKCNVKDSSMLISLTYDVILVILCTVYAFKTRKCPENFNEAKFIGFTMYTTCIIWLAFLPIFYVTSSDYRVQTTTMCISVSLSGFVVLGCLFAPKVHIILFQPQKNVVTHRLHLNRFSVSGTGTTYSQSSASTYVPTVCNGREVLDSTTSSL

The target in the first experiment is T1, human mGlu2 receptor (Homo sapiens, UniProt Q14416).
T1 construct: expressed in transfected cells; host or cells: HEK293
T1 sequence (Q14416 19-872): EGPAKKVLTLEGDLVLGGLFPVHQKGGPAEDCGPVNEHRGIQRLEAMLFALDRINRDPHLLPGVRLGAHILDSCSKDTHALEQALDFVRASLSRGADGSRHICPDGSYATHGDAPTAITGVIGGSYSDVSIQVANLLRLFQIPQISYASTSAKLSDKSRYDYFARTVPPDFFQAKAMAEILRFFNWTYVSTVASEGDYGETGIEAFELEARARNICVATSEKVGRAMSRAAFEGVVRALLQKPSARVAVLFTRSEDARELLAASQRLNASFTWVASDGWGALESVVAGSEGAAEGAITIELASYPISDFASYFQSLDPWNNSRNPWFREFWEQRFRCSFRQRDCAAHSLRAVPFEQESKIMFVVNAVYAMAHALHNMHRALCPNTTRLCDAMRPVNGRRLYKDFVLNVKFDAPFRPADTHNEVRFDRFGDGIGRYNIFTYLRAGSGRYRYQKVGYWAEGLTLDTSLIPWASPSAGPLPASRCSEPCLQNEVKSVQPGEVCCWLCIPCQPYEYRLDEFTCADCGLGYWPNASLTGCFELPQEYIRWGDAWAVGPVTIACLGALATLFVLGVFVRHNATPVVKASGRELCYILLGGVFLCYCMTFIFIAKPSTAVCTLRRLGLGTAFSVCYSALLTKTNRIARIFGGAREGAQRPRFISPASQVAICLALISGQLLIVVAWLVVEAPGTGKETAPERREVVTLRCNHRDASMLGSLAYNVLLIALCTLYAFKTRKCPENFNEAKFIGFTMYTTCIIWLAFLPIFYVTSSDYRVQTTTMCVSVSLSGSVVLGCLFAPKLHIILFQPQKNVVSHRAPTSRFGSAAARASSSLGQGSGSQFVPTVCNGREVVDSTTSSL
As to the kind of experiment: FLIPR intracellular Ca2+ assay, potentiation of glutamate response in HEK293 clone expressing mGlu2 receptor, rGLAST and Galpha16. It counts as cell-based. The note with it: 1 μM glutamate added ten minutes after test compound, HEK293 cells with human mGlu2, rGLAST, Galpha16, read-out: EC50 values of potentiation effect to glutamate. Summed up:
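HEK293 cells stably expressing human mGlu2, rat GLAST and Gα16 were loaded with 2 µM Fluo-4 AM and intracellular Ca2+ read by FLIPR. Compound added alone (agonism), then with submaximal glutamate (e.g. 1 µM; potentiation). Background-subtracted peaks normalized to 100 µM glutamate response; EC50 from four-parameter fit.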
One may read the EC50 as the concentration giving half of the maximal effect. Consider `CCCC(=O)c1ccc(OCCCCOc2cccnc2)cc1` [Example 423, 1-{4-[4-(Pyridin-3-yloxy)-butoxy]-phenyl}-butan-1-one], for which the EC50 was 1000 to 10000 nM. The same measure, in the same setting: for `CCCC(=O)c1ccc(NCc2cn(-c3ccccc3)nc2-c2cccnc2)cc1` [Example 222, 1-{4-[(1-Phenyl-3-pyridin-3-yl-1H-pyrazol-4-ylmethyl)-amino]-phenyl}-butan-1-one] the value was 1000 to 10000 nM.

For `CCCC(=O)c1cccc(NCc2cccnc2)c1` [Example 386, 1-{3-[(Pyridin-3-ylmethyl)-amino]-phenyl}-butan-1-one], the EC50 was 1000 to 10000 nM. On to `CCCC(=O)c1ccc(NCc2c[nH]nc2-c2ccc(OC)cc2)cc1` [Example 209, 1-(4-{[3-(4-Methoxy-phenyl)-1H-pyrazol-4-ylmethyl]-amino}-phenyl)-butan-1-one], for which the EC50 is below 1000 nM.

With `CCCC(=O)c1ccc(OCc2c[nH]nc2-c2ccc(C(F)(F)F)cc2)cc1` [Example 494, 1-{4-[3-(4-Trifluoromethyl-phenyl)-1H-pyrazol-4-ylmethoxy]-phenyl}-butan-1-one], the EC50 was below 1000 nM.

In the case of `CCCC(=O)c1ccc(NCc2c(C)noc2C)cc1` [Example 227, 1-{4-[(3,5-Dimethyl-isoxazol-4-ylmethyl)-amino]-phenyl}-butan-1-one], the EC50 was 1000 to 10000 nM. The same measure, in the same setting: for `CCC(CC)Oc1cccc(NCc2c[nH]nc2-c2ccc(C(F)(F)F)cc2)c1` [Example 380, [3-(1-Ethyl-propoxy)-phenyl]-[3-(4-trifluoromethyl-phenyl)-1H-pyrazol-4-ylmethyl]-amine] the value was 1000 to 10000 nM. Take `CCCCN1Cc2cc(OCc3c[nH]nc3-c3ccc(Cl)c(Cl)c3)ccc2C1=O` [Example 547, 2-Butyl-5-[3-(3,4-dichloro-phenyl)-1H-pyrazol-4-ylmethoxy]-2,3-dihydro-isoindol-1-one]: the EC50 was below 1000 nM.

Take `CCCC(=O)c1ccc(NCc2nc3ccccc3n2C)cc1` [Example 226, 1-{4-[(1-Methyl-1H-benzoimidazol-2-ylmethyl)-amino]-phenyl}-butan-1-one]: the EC50 fell in the range of 1000 to 10000 nM. On the same count and under the same terms, for `CCCC(=O)c1ccc(N(Cc2ccc(N(C)C)nc2)S(=O)(=O)CC(F)(F)F)cc1` [Example 391, 2,2,2-Trifluoro-ethanesulfonic acid (4-butyryl-phenyl)-(6-dimethylamino-pyridin-3-ylmethyl)-amide] the value was 1000 to 10000 nM.

On to `O=C1c2ccc(OCc3c[nH]nc3-c3ccc(C(F)(F)F)cc3)cc2CN1CCCC(F)(F)F` [Example 552, 2-(4,4,4-Trifluoro-butyl)-5-[3-(4-trifluoromethyl-phenyl)-1H-pyrazol-4-ylmethoxy]-2,3-dihydro-isoindol-1-one], for which the EC50 is below 1000 nM. As to `CCCC(=O)c1ccc(NCc2c[nH]nc2-c2ccc(Cl)cc2)cc1` [Example 217, 1-(4-{[3-(4-Chloro-phenyl)-1H-pyrazol-4-ylmethyl]-amino}-phenyl)-butan-1-one], the EC50 was below 1000 nM. `CN(C)S(=O)(=O)c1ccc(NCc2c[nH]nc2-c2ccc(C(F)(F)F)cc2)cc1` [Example 169, N,N-Dimethyl-4-{[3-(4-trifluoromethyl-phenyl)-1H-pyrazol-4-ylmethyl]-amino}-benzenesulfonamide]: the EC50 fell in the range of 1000 to 10000 nM. On the same count and under the same terms, to `CCCC(=O)c1ccc(NCc2c[nH]cc2-c2ccccc2)cc1` [Example 523, 1-{4-[(4-Phenyl-1H-pyrrol-3-ylmethyl)-amino]-phenyl}-butan-1-one] belongs 1000 to 10000 nM.

A further experiment has as its target mGlu3 (Homo sapiens, UniProt Q14832).
Assay: not given
The note with it: agonist; cited from earlier work.
`N[C@@]1(C(=O)O)CC[C@H]2[C@H](C(=O)O)[C@H]21` [LY354740]: the EC50 was 20 nM. `N[C@@]1(C(=O)O)CO[C@H]2[C@H](C(=O)O)[C@H]21` [LY379268]: the EC50 is 5 nM.
